Source: patent US12616713B2, “Methods for enhancing vascular density” (priority 2016, dated 2026)
“Also recorded” adds a separate entry of the source.

Assays:
HUVECs [1] = assay: Cell proliferation assay, HUVECs; format: cell-based, human; details: NMN 500 μM, 48 h, complete growth medium
Description: ECs (0.1×10^5 cells) were seeded in a 48-well plate and incubated with PBS (vehicle) or NMN (500 μM) in complete growth medium for 48 h. At the end of the incubation time, the cells were harvested and resuspended in Opti-MEM medium. Cell number was determined using flow cytometry (FACSCanto II Analyzer, BD Biosciences, USA).

HUVECs [2] = assay: VEGF-mediated transwell migration assay, HUVECs; format: cell-based, human; details: NMN 500 μM versus PBS
HAECs = assay: Spheroid sprouting assay, HAECs; format: cell-based, human
Description: ECs spheroids were generated as described previously (Korff and Augustin, 1998, J Cell Biol 143, 1341-1352). ECs (1000 cells per spheroid) were suspended in EGM-2 medium containing 20% methocel (viscosity: 4000 cps, Sigma) and seeded in non-adherent round-bottom 96-well plates (Sigma). Under these conditions all suspended cells contributed to the formation of a single spheroid. The spheroids were harvested after 24 h embedded into collagen gels. Sprouting was initiated by adding C2C12 CM or EBM-2 medium containing VEGF (50 ng/mL). NMN (0.5 mM), NaHS (0.1 mM), DAPT (20 μM, Cayman Chemical) or SU5416 (10 μM, Sigma) were added to the media wherever mentioned. Angiogenic activity was quantified by measuring the sprout length that had grown out of each spheroid analyzing 8-10 spheroids per group.

NAD^+ = assay: NAD+ measurements in tissues of NMN-treated mice; format: in vivo, mouse; details: 18-month old mice, NMN 400 mg/kg/day in drinking water, two months; liver and gastrocnemius
From the text: SIRT1-iKO, SIRT1-Tg and SIRT1^STOP mice were described previously (Firestein et al., 2008, PLoS One 3, e2020; Price et al., 2012, Cell Metab 15, 675-690). Tie2Cre and Sirt1^flox/flox mice were purchased from Jackson Laboratory (Bar Harbor, ME). MCK-PGC-1α and MyogCre mice were gifts from Dr. Bruce Spiegelman (Dana Farber Cancer Center, MA) and Dr. Eric N. Olson (UT Southwestern, Dallas, TX), respectively. mT-STOP^flox/flox, Gfp mouse was generated in house by E.O.W., which consists of an allele driven by ubiquitous actin B promoter, which has loxP sites flanking membrane-targeted tandem dimer Tomato (mT) and transcriptional STOP cassette, followed by a GFP coding sequence. […] SIRT1-iKO mice were fed tamoxifen (360 mg/kg) diet for five weeks to elicit whole-body SIRT1 exon 4 excision as described previously (Price et al., 2012). […] Levels of NAD^+ and NADH levels were measured in EC and muscle homogenates using commercially available kit (NAD-NADH Glo, Promega) according to manufacturer's instructions. Alternatively, NAD^+ levels in muscle and liver were measured by assay in-house developed method (Uddin et al., 2016, Front Pharmacol 7, 258). […] The other aliquot was acidified with HCl, and then neutralized with NaOH on ice to quantify NAD^+. […] Total NADH and NAD^+ were quantified using a Bio-Rad Imark microplate reader.

C57BL/6J mice [3] = assay: Contrast-enhanced ultrasound of hindlimb muscle perfusion; format: in vivo, mouse; details: 20-month old mice, NMN-treated versus vehicle
Description: Mice were anesthetized with isoflurane (1.5-2%, 500 ml 02/min), hindlimbs were shaved using depilatory cream and a 27-gauge catheter was placed into each mouse's tail and kept in place with surgical tape. Each mouse was placed in a supine position on a platform heated to 38° C. with each paw taped to a surface electrode to monitor ECG, heart rate, and respiratory rate. Contrast-enhanced ultrasound (CEU) (Vevo 2100, Visualsonics, Canada) was performed at an imaging frequency of 18 MHz. The probe was placed on the medial side of the leg to image the lower hindlimb in a sagittal plane. A bolus injection of microbubbles (Vevo MicroMarker, Canada) were injected through the tail vein catheter according to the manufacturer's instructions. A cine loop was recorded at a frame rate of 20 frames/s for a total of 1,000 frames. Curve fit analysis was used to measure echo power over time. The difference in maximum and minimum video intensity was determined as the peak enhancement and was the variable used to determine muscle perfusion.

SIRT1 = SIRT1 protein levels in HUVECs (Western blot); format: cell-based, human; details: NaHS 0.1 mM and/or NMN 0.5 mM
Description: SDS-PAGE and Western blot analysis were performed according to standard procedures and detected with the ECL detection kit (Bio-rad, Australia). For Western blot analysis antibodies directed against SIRT1 (Sigma), SIRT3 (CST), SIRT6 (SantaCruz), eNOS (Cell Signaling Technology or CST), cleaved Notch1 (CST), total OXPHOS cocktail (Abcam), PGC-1α (Millipore), VEGF (Abcam), VEGFR2 (Abcam), phospho-VEGFR2 (Millipore), Actin (Cell Signaling Technology), Tubulin (Sigma), 14-3-3 (Cell Signaling Technology), GAPDH (SantaCruz) were used. Quantification of band intensities by densitometry was carried out using ImageJ software.

C57BL/6J mice [4] = assay: TUNEL and CD31 co-staining of quadriceps capillaries; format: in vivo, mouse; details: aged quadriceps tissue, four weeks treatment; untreated 42%
Description: Freshly isolated whole quadriceps and gastrocnemius muscle samples were mounted in OCT compound (Tissue-Tek), placed in an isopentane bath and slowly cooled in liquid nitrogen. Transverse sections at 20 μm-thickness were sectioned on a cryostat (Leica). The sections were fixed in pre-cooled acetone (−20° C.) for 10 min and washed with PBS. Slides were then blocked in normal goat serum and 5% Blocking Reagent (PerkinElmer) in PBST (PBS with 0.1% Triton-X) for 1 h at room temperature, and then incubated with anti-CD31 (ab56299, Abcam) and anti-Laminin (L9393, Sigma), GFP (ab6556, Abcam) or SIRT1 (HPA006295, Sigma) antibodies diluted in blocking buffer overnight at 4° C. Slides were washed with PBST and then incubated with anti-rat Alexa Fluor 488-conjugated (Life Technologies) and anti-rabbit Alexa Fluor 594-conjugated (Life Technologies) antibodies diluted to 1:500 in blocking buffer for 2 h at room temperature. Slides were washed again with PBST and mounted with Fluoroshield with DAPI mounting medium (Sigma). Images were acquired using a confocal fluorescence microscope (Nikon A1). Quantification of capillaries and capillary density were performed using ImageJ software. TUNEL staining was performed in muscle sections using in situ BrdU-Red DNA fragmentation (TUNEL) assay kit (Abcam) as per manufacturer's protocol.

Compound: NC(=O)c1ccc[n+]([C@@H]2O[C@H](COP(=O)([O-])O)[C@@H](O)[C@H]2O)c1 [NMN, nicotinamide mononucleotide]
- cell growth (relative cell number) (HUVECs [1]): promoted cell growth; also recorded: induced proliferation
- motility in response to VEGF (migrated cells) (HUVECs [2]): promoted
- ability of NMN to stimulate spheroid sprouting, dependence on SIRT1 (HAECs; NT or SIRT1 siRNA, VEGF 50 ng/mL, NMN 0.5 mM): SIRT1-dependent
- rescue of SU5416-blocked sprouting (HAECs; SU5416 10 μM plus NMN 0.5 mM): not rescued
- VEGF-mediated spheroid sprouting after knockdown of SIRT3 and SIRT6 (HAECs; T3 or T6 siRNA, VEGF, NMN 0.5 mM): partially rescued
- NAD^+ levels in tissues (NAD^+): raised NAD^+ levels
- resting muscle perfusion (peak enhancement) (C57BL/6J mice [3]): increased resting muscle perfusion
- SIRT1 protein levels (SIRT1): increased SIRT1 protein levels
- number of capillaries with apoptotic cells (C57BL/6J mice [4]): 17%
